Test results published in patent US5670492A, “DC-89 derivatives” (priority 1994, dated 1997).
Converted amounts (≈) assume the structure as drawn. Like-named read-outs stand apart in the source and are kept apart here.

Key:
HeLaS3 cells = assay: Growth Inhibitory Effect Against HeLaS3 cells; type: cell-based; settings: Homo sapiens
Protocol: HeLaS3 cells were suspended in MEM medium containing 10% calf serum and 2 mM glutamine to a concentration of 2.67×10^4 cells/mi. The cell suspension thus prepared was put into wells of a 24-well culture plate in an amount of 0.75 ml per well. After the cells were incubated in a CO2 incubator overnight at 37° C., Compound (I) which had been appropriately diluted with a culture medium was added to each well in an amount of 0.25 ml.
The cells were further incubated in the CO2 incubator for 72 hours, and the culture supernatant was removed. Then, the cells were dispersed in a solution of trypsin and EDTA and recovered. The number of cells was counted using a cell counter. The concentration (IC50) of Compound (I) at which the growth of the cells is inhibited by 50% was calculated by comparing the number of untreated cells with the number of the cells treated with Compound (I) at known concentrations.

[1] = Test for Solubility in Water; type: physicochemical; settings: room temperature
Protocol: A sample tube was charged with 0.7 mg of Compound (I), and 30 μl of water were added thereto at room temperature. The mixture was stirred, and the solubility in water was measured. When the compound was not dissolved, 30 μl of water was added thereto successively, and the mixture was stirred. The solubility in water was measured when the compound was dissolved.

Sarcoma 180 tumor = assay: Therapeutic Effect Against Sarcoma 180 Tumor; type: in vivo, male ddY-strain mice; settings: Mus musculus, Sarcoma-180, iv, 168 h, read-out: T/C
Protocol: Five male ddY-strain mice each weighing 18-20 g were used for each group as test animals, and 5×10^5 Sarcoma 180 tumor cells were implanted at the axilla subcutaneously. One day after the implantation, 0.2 ml of a physiological saline containing Compound (I) at the concentration shown in Table 2 was intravenously administered to each mouse. T/C [T: average tumor volume (mm^3) of the group treated with the test compound, C: average tumor volume (mm^3) of the control group (to which […] of a physiological saline was intravenously administered)] was determined seven days after the implantation.

ddY-strain male mice = assay: Acute Toxicity; type: in vivo; settings: i.v., mortality at 14 days after administration
Protocol: Compound (I) was intravenously administered to ddY-strain male mice each weighing 20±1 g. MLD (minimum lethal dose) was determined by observing the mortality at 14 days after administration.

[2] = HeLa S3, 72 hours, read-out: IC50
[3] = 1.0 mg/kg, single i.v. one day after s.c. implantation, tumor volume ratio seven days after implantation

| SMILES | IC50 (HeLaS3 cells; [2]) | solubility [1] | IC50 (HeLaS3 cells; HeLa S3, 72 h) | MLD (minimum lethal dose) (ddY-strain male mice) | further results |
| --- | --- | --- | --- | --- | --- |
| COC(=O)c1c(C)[nH]c2c1C13CC1CN(C(=O)/C=C/c1ccc(OC)nc1)C3=CC2=O (stereo not drawn) [Compound 1] | 0.42 nM | – | – | – | – |
| COC(=O)c1c(C)[nH]c2c(OC(=O)N3CCN(C)CC3)cc3c(c12)C(CBr)CN3C(=O)/C=C/c1ccc(OC)nc1 (stereo not drawn) [Compound 3] | – | > 20 mg/mL | 110 nM | 1.0 mg/kg | response vs control in vivo at 1 mg/kg (Sarcoma 180 tumor): 36% |
| COC(=O)Oc1cc2c(c3c(C(=O)OC)c(C)[nH]c13)C(CBr)CN2C(=O)/C=C/c1ccc(OC)nc1 (stereo not drawn) [Compound 4] | – | – | 0.7 nM | 0.50 mg/kg | response vs control in vivo at 0.5 mg/kg (Sarcoma 180 tumor): 35% |
| COC(=O)c1c(C)[nH]c2c1C13CC1CN(C(=O)/C=C/c1cnc(OC)nc1)C3=CC2=O (stereo not drawn) [Compound 6] | 0.9 nM | – | – | – | – |
| COC(=O)c1c(C)[nH]c2c(OC(=O)N3CCN(C)CC3)cc3c(c12)C(CBr)CN3C(=O)/C=C/c1cnc(OC)nc1 (stereo not drawn) [Compound 8] | – | > 20 mg/mL | 170 nM | 4.0 mg/kg | response vs control in vivo at 2 mg/kg (Sarcoma 180 tumor): 26% |
| COC(=O)c1c(C)[nH]c2c(OC(C)=O)cc3c(c12)C(CBr)CN3C(=O)/C=C/c1cnc(OC)nc1 (stereo not drawn) [Compound 11] | – | – | 0.92 nM | 1.0 mg/kg | response vs control in vivo at 1 mg/kg (Sarcoma 180 tumor): 17% |
| COC(=O)c1c(C)[nH]c2c1C13CC1CN(C(=O)/C=C/c1ccc(OC)nn1)C3=CC2=O (stereo not drawn) [Compound 12] | 0.28 nM | – | – | – | – |
| COC(=O)c1c(C)[nH]c2c(OC(=O)N3CCN(C)CC3)cc3c(c12)C(CBr)CN3C(=O)/C=C/c1ccc(OC)nn1 (stereo not drawn) [Compound 14] | – | > 20 mg/mL | 90 nM | 0.50 mg/kg | response vs control in vivo at 1 mg/kg (Sarcoma 180 tumor): 31% |
| COC(=O)c1c(C)[nH]c2c(OC(=O)N3CCN(C)CC3)cc3c(c12)C(CBr)CN3C(=O)/C=C/c1ccc(OC)cn1 (stereo not drawn) [Compound 17] | – | > 20 mg/mL | – | – | – |
| COC(=O)c1c(C)[nH]c2c1C13CC1CN(C(=O)COc1ccc(OC)cc1)C3=CC2=O (stereo not drawn) [Compound 18] | 0.19 nM | – | – | – | – |
| COC(=O)c1c(C)[nH]c2c(OC(=O)N3CCN(C)CC3)cc3c(c12)C(CBr)CN3C(=O)COc1ccc(OC)cc1 (stereo not drawn) [Compound 20] | – | – | 94 nM | 0.50 mg/kg | response vs control in vivo at 0.5 mg/kg (Sarcoma 180 tumor): 20% |
| COC(=O)c1c(C)[nH]c2c1C13CC1CN(C(=O)COc1ccc(OC(F)(F)F)cc1)C3=CC2=O (stereo not drawn) [Compound 23] | 1.6 nM | – | – | – | – |
| COC(=O)c1c(C)[nH]c2c(OC(=O)N3CCN(C)CC3)cc3c(c12)C(CBr)CN3C(=O)COc1ccc(OC(F)(F)F)cc1 (stereo not drawn) [Compound 25] | – | 0.2 mg/mL (≈ 0.293 mM) | 1100 nM | 4.0 mg/kg | response vs control in vivo at 2 mg/kg (Sarcoma 180 tumor): 12% |
| COC(=O)c1c(C)[nH]c2c1C13CC1CN(C(=O)/C=C/c1ccc(NC(=O)OC(C)(C)C)cc1)C3=CC2=O (stereo not drawn) [Compound 26] | 0.56 nM | – | – | – | – |
| COC(=O)c1c(C)[nH]c2c1C13CC1CN(C(=O)/C=C/c1ccc(N(C)C)cc1)C3=CC2=O (stereo not drawn) [Compound 27] | 1.6 nM | – | – | – | – |
| COC(=O)c1c(C)[nH]c2c1C13CC1CN(C(=O)/C=C/c1ccc(N)cc1)C3=CC2=O (stereo not drawn) [Compound 28] | 2.6 nM | – | – | – | – |
| COC(=O)c1c(C)[nH]c2c1C13CC1CN(C(=O)/C=C/c1ccc(OC)c(OCCCN)c1)C3=CC2=O (stereo not drawn) [Compound 30] | 1.4 nM | – | – | – | – |
| COC(=O)c1c(C)[nH]c2c(OC(=O)N3CCN(C)CC3)cc3c(c12)C(CBr)CN3C(=O)/C=C/c1ccc(OC)c(OCCCN)c1 (stereo not drawn) [Compound 32] | – | > 20 mg/mL | – | – | – |
| COC(=O)COc1cc(/C=C/C(=O)N2CC3CC34C2=CC(=O)c2[nH]c(C)c(C(=O)OC)c24)ccc1OC (stereo not drawn) [Compound 34] | 0.86 nM | – | – | – | – |
| COC(=O)c1c(C)[nH]c2c1C13CC1CN(C(=O)/C=C/c1ccc(OC)c(N)c1)C3=CC2=O (stereo not drawn) [Compound 37] | 0.53 nM | – | – | – | – |
| COC(=O)Oc1cc2c(c3c(C(=O)OC)c(C)[nH]c13)C(CBr)CN2C(=O)/C=C/c1ccc(OC)c(N)c1 (stereo not drawn) [Compound 38] | 0.67 nM | – | – | – | – |

| SMILES | IC50 (HeLaS3 cells; [2]) | solubility [1] | IC50 (HeLaS3 cells; HeLa S3, 72 h) | MLD (minimum lethal dose) (ddY-strain male mice) | further results |
| --- | --- | --- | --- | --- | --- |
| COC(=O)c1c(C)[nH]c2c(OC(=O)N3CCN(C)CC3)cc3c(c12)C(CBr)CN3C(=O)/C=C/c1ccc(OC)c(N)c1 (stereo not drawn) [Compound 40] | – | > 20 mg/mL | – | – | – |
| COC(=O)c1c(C)[nH]c2c1C13CC1CN(C(=O)/C=C/c1ccc(OC)c(N(C)C)c1)C3=CC2=O (stereo not drawn) [Compound 41] | 0.92 nM | – | – | – | – |
| COC(=O)c1c(C)[nH]c2c(OC(=O)N3CCN(C)CC3)cc3c(c12)C(CBr)CN3C(=O)/C=C/c1ccc(OC)c(N(C)C)c1 (stereo not drawn) [Compound 43] | – | < 0.5 mg/mL | 52 nM | 4.0 mg/kg | response vs control in vivo at 2 mg/kg (Sarcoma 180 tumor): 13% |
| COC(=O)c1c(C)[nH]c2c(OC(C)=O)cc3c(c12)C(CBr)CN3C(=O)/C=C/c1ccc(OC)c(N(C)C)c1 (stereo not drawn) [Compound 45] | – | > 20 mg/mL | 0.54 nM | 1.0 mg/kg | response vs control in vivo at 1 mg/kg (Sarcoma 180 tumor): 20% |
| CCN(CC)c1cc(/C=C/C(=O)N2CC(CBr)c3c2cc(OC(=O)N2CCN(C)CC2)c2[nH]c(C)c(C(=O)OC)c32)ccc1OC (stereo not drawn) [Compound 49] | – | > 20 mg/mL | 280 nM | > 8.0 mg/kg | response vs control in vivo at 8 mg/kg (Sarcoma 180 tumor): 20% |
| COC(=O)c1c(C)[nH]c2c(OC(C)=O)cc3c(c12)C(CCl)CN3C(=O)/C=C/c1ccc(OC)c(N(C)C)c1 (stereo not drawn) [Compound 51] | 0.46 nM | > 10 mg/mL | – | 4.0 mg/kg | response vs control in vivo at 4 mg/kg (Sarcoma 180 tumor; 4.0 mg/kg, single i.v. one day after s.c. implantation, tumor volume ratio seven days after implantation): 14% |
| COC(=O)c1c(C)[nH]c2c(OC(=O)N(C)N)cc3c(c12)C(CBr)CN3C(=O)/C=C/c1ccc(OC)c(N(C)C)c1 (stereo not drawn) [Compound 53] | – | – | 1.2 nM | 2.0 mg/kg | response vs control in vivo at 2 mg/kg (Sarcoma 180 tumor): 7% |
| COC(=O)c1c(C)[nH]c2c(OC(=O)c3ccc(N(C)C)cc3)cc3c(c12)C(CBr)CN3C(=O)/C=C/c1ccc(OC)c(N(C)C)c1 (stereo not drawn) [Compound 56] | – | – | 2.2 nM | 1.0 mg/kg | response vs control in vivo at 1 mg/kg (Sarcoma 180 tumor): 36% |
| COC(=O)c1c(C)[nH]c2c(OC(=O)c3nccnc3N)cc3c(c12)C(CBr)CN3C(=O)/C=C/c1ccc(OC)c(N(C)C)c1 (stereo not drawn) [Compound 58] | – | > 20 mg/mL | – | – | – |
| COC(=O)c1c(C)[nH]c2c(OC(=O)c3cccnc3)cc3c(c12)C(CBr)CN3C(=O)/C=C/c1cnc(OC)nc1 (stereo not drawn) [Compound 67] | – | – | 1.2 nM | 1.0 mg/kg | response vs control in vivo at 1 mg/kg (Sarcoma 180 tumor): 26% |
| COC(=O)c1c(C)[nH]c2c(OC(=O)NN3CCN(C)CC3)cc3c(c12)C(CBr)CN3C(=O)/C=C/c1cnc(OC)nc1 (stereo not drawn) [Compound 71] | – | > 10 mg/mL | 1.5 nM | – | response vs control in vivo at 2 mg/kg (Sarcoma 180 tumor): 30% |
| COC(=O)c1c(C)[nH]c2c(OC(=O)CSCC(=O)O)cc3c(c12)C(CBr)CN3C(=O)/C=C/c1cnc(OC)nc1 (stereo not drawn) [Compound 73] | 1.2 nM | < 0.1 mg/mL | – | – | response vs control in vivo at 1 mg/kg (Sarcoma 180 tumor; [3]): 36% |
| COC(=O)c1c(C)[nH]c2c(OC(=O)N(C)N)cc3c(c12)C(CBr)CN3C(=O)/C=C/c1cnc(OC)nc1 (stereo not drawn) [Compound 74] | – | – | 2.4 nM | – | response vs control in vivo at 1 mg/kg (Sarcoma 180 tumor): 37% |
| COC(=O)c1c(C)[nH]c2c(OC(=O)c3ccc(CN4CCN(C)CC4)cc3)cc3c(c12)C(CBr)CN3C(=O)/C=C/c1cnc(OC)nc1 (stereo not drawn) [Compound 76] | 1.3 nM | > 10 mg/mL | – | – | response vs control in vivo at 1 mg/kg (Sarcoma 180 tumor; [3]): 25% |
| COC(=O)c1c(C)[nH]c2c(OC(=O)c3cccnc3)cc3c(c12)C(CBr)CN3C(=O)/C=C/c1ccc(N(C)C)cc1 (stereo not drawn) [Compound 77] | – | – | 0.45 nM | 4.0 mg/kg | response vs control in vivo at 4 mg/kg (Sarcoma 180 tumor): 19% |
| COC(=O)c1c(C)[nH]c2c(OC(=O)N3CCN(C)CC3)cc3c(c12)C(CBr)CN3C(=O)/C=C/c1ccc(N(C)C)cc1 (stereo not drawn) [Compound 79] | – | > 20 mg/mL | 52 nM | – | response vs control in vivo at 8 mg/kg (Sarcoma 180 tumor): 22% |
| COC(=O)c1c(C)[nH]c2c(O)cc3c(c12)C(CCl)CN3C(=O)/C=C/c1ccc(OC)c(N(C)C)c1 (stereo not drawn) [Compound 80] | 0.44 nM | > 15 mg/mL | – | – | – |
| COC(=O)c1c(C)[nH]c2c(O)cc3c(c12)C(CBr)CN3C(=O)/C=C/c1ccc(OC)c(N(C)C)c1 (stereo not drawn) [Compound 81] | 0.5 nM | 2.5 mg/mL (≈ 4.61 mM) | – | – | – |
| COC(=O)c1c(C)[nH]c2c(OC(=O)CN3CCN(C)CC3)cc3c(c12)C(CBr)CN3C(=O)/C=C/c1ccc(OC)c(N(C)C)c1 (stereo not drawn) [Compound 82] | – | > 10 mg/mL | 0.5 nM | 2.0 mg/kg | – |
| COC(=O)c1c(C)[nH]c2c(OC(=O)CN3CCC(N4CCCCC4)CC3)cc3c(c12)C(CBr)CN3C(=O)/C=C/c1ccc(OC)c(N(C)C)c1 (stereo not drawn) [Compound 83] | 0.59 nM | > 20 mg/mL | – | – | – |
